Source: US4130647A, “Methods for treating congestive heart failure and ischemic heart disease” (priority 1977, dated 1978)
Values joined by “and” are separate entries in the source; they are usually repeats but may differ in a detail not shown here. Identical values can stand only once. Like-named read-outs stand apart in the source and are kept apart here.

Experiments:
[1] = tested on: patients who had severe ischemic cardiomyopathy and heart failure; test: Hemodynamic effects of oral prazosin in congestive heart failure (Example 1); assay type: in vivo, human; details: for pressure.time per minute (index of myocardial oxygen demand): control 3293 ± 191
Excerpt: The study comprised ten patients, six males and four females, mean age 51 years (range 46 to 62 years) who had severe ischemic cardiomyopathy and heart failure documented in each by cardiac catheterization and coronary arteriography. The duration of heart failure symptoms ranged from one to six years. All patients were receiving digoxin and diuretics, while seven were also taking long-acting nitrate preparations for the chronic unloading effects of these agents, Williams, et al., Am. J. Cardiol., 39, 84 (1977) and Amsterdam, et al., Circulation, 52 [Suppl. 2] 150 (1975).
Left ventriculography confirmed extensive abnormalities of segmental contraction in the appropriate area in each patient and the mean ejection fraction for this group of patients was 0.18 ± 0.03 (SEM). […] The remaining two patients were clinically functional class IV with resting dyspnea and were not able to undergo exercise evaluation.
Hemodynamics: All patients were studied in the post-absorptive state; and informed consent was obtained in each. All cardiac medications including digoxin, diuretics and long-acting nitrates were withheld for at least 24 hours prior to study.
Systemic arterial pressure was measured directly through an intra-arterial Teflon catheter placed into a brachial artery. Right atrial (RA), pulmonary artery (PA) and pulmonary artery wedge (PAW) pressures, and cardiac output (CO) by thermodilution were recorded with the Swan-Ganz catheter. Cardiac outputs were performed in triplicate (less than 10 percent variation) utilizing iced-water and computations were accomplished by a bed-side computer (Santa Barbara, Technology, Inc., Santa Barbara, Calif.).
Derived hemodynamic variables were calculated as follows: stroke work index (SWI) in gm-m/M^2 = SI × (AP-LVFP) × 0.0136 here SI = stroke index, AP = mean systemic arterial pressure and LVFP = left ventricular filling pressure either as the mean PAW or PA diastolic pressure, the particular method utilized for this variable remaining constant throughout the study for each patient; total systemic vascular resistance (TSVR) = 80 [(AP-RA)/CO] where 80 converts mm. Hg. to dynes sec. cm.^-5 and RA = mean RA pressure; pressure.time per minute (PTM) in mm. Hg. sec. per minute = AP × ET × HR where ET = left ventricular ejection time and HR = heart rate.

[2] = tested on: patients; details: cited from earlier work
[3] = tested on: patients; design: species or system human; details: in vivo
Excerpt: A finding of major importance which emerged from this investigation concerns the relative effects of prazosin on both venous and arteriolar smooth muscle. Prazosin is used clinically as an antihypertensive agent and the arterial dilating actions have been confirmed previously in experimental studies [Cohen, et al., J. Clin. Pharmacol., 10, 408 (1970)]. The important finding delineated herein that prazosin also effects substantial venodilation was of considerable physiologic significance since this unique action on systemic veins allows salutory extension of oral prazosin to the ambulatory therapy of chronic congestive heart failure. In this regard, in patients with normal left ventricular filling pressures, the prazosin-induced venous pooling and decline in cardiac return may lower ventricular preload to such a degree that the point of operation of the ventricle on the Frank-Starling relation is shifted substantially downward and to the left on its ascending limb with resultant decline in cardiac output despite lowered impedance. Furthermore, in the case of prazosin, the attenuation of reflex tachycardia by the agent in this circumstance of lowered stroke volume because of low preload, inhibits the principal regulatory mechanism which would otherwise compensate for the lowered stroke volume. […]

[4] = tested on: forearm blood flow, vascular resistance and venous tone of patients with heart failure; details: for forearm blood flow: control 1.29 ± 0.14; for forearm vascular resistance: control 88.9 ± 13.8
[5] = tested on: enzyme phosphodiesterase in vascular smooth muscle; details: cited from earlier work
[6] = tested on: contractile state of the heart; details: experimental studies; cited from earlier work
[7] = 1 hour post prazosin, individual patients
[8] = 60 minutes post prazosin vs. control
[9] = 3 hours post prazosin, group mean
[10] = 3 hours post prazosin, individual patients
[11] = 6 hours post prazosin, group mean
[12] = 6 hours post prazosin, individual patients
[13] = one hour post prazosin vs. control

COc1cc2nc(N3CCN(C(=O)c4ccco4)CC3)nc(N)c2cc1OC [prazosin]
cardiac index, patients responding ([1]; 30 minutes post prazosin): increased in each patient | left ventricular filling pressure, patients responding ([1]; 30 minutes post prazosin): lowered in all 10 patients | Cardiac Index ([1]; 30 minutes post prazosin, group mean, control 2.07 ± 0.12): 2.62 ± 0.11 L/min./M^2 | total systemic vascular resistance ([1]; 30 minutes post prazosin, group mean, control 2074 ± 183): 1448 ± 139 dynes sec. cm.^-5 | stroke work index, direction of change ([1]; 30 minutes post prazosin, p<0.01): increased | Mean Systemic Arterial Pressure ([1]; 30 minutes post prazosin, control 95.3 ± 5.3): 86.1 ± 5.8 mm. Hg. | pressure.time per minute (index of myocardial oxygen demand) ([1]; 30 minutes post prazosin): 2992 ± 208 mm. Hg. sec. per minute | CI (cardiac index), mean ([1]; 1 hour (60 minutes) post prazosin, group mean, control 2.07): 2.94 ± 0.10 L/min./M^2 and 2.9 L/min./M^2 | SWI (stroke work index), mean ([1]; 1 hour (60 minutes) post prazosin, group mean, control 23.3): 31.4 ± 5.1 gm.-m/M^2 and 31.4 gm.-m/M^2 | LVFP (left ventricular filling pressure), mean ([1]; 1 hour (60 minutes) post prazosin, group mean, control 30.2): 17.7 ± 1.4 mm. Hg. and 17.7 mm. Hg. | HR (heart rate), mean ([1]; 1 hour post prazosin, group mean, control 84): 84 beats per minute | AP (mean systemic arterial pressure), mean ([1]; 1 hour post prazosin, group mean, control 95.3): 77.8 mm. Hg. | TSVR (total systemic vascular resistance), mean ([1]; 1 hour post prazosin, group mean, control 2074): 1156 ± 83 dynes sec. cm.^-5 and 1156 dynes sec. cm.^-5 | AP (mean systemic arterial pressure) [1, 7]: 86 mm. Hg. and 62 mm. Hg. and 92 mm. Hg. and 69 mm. Hg. and 91 mm. Hg. and 77 mm. Hg. and 67 mm. Hg. and 64 mm. Hg. and 60 mm. Hg. and 110 mm. Hg. | CI (cardiac index) [1, 7]: 2.9 L/min./M^2 and 2.8 L/min./M^2 and 3.2 L/min./M^2 and 2.6 L/min./M^2 and 3.1 L/min./M^2 and 2.5 L/min./M^2 and 3.5 L/min./M^2 | LVFP (left ventricular filling pressure) [1, 7]: 16 mm. Hg. and 19 mm. Hg. and 25 mm. Hg. and 11 mm. Hg. and 12 mm. Hg. and 18 mm. Hg. and 24 mm. Hg. and 21 mm. Hg. and 20 mm. Hg. and 13 mm. Hg. | SWI (stroke work index) [1, 7]: 41 gm.-m/M^2 and 23 gm.-m/M^2 and 34 gm.-m/M^2 and 24 gm.-m/M^2 and 44 gm.-m/M^2 and 29 gm.-m/M^2 and 17 gm.-m/M^2 and 15 gm.-m/M^2 and 20 gm.-m/M^2 and 68 gm.-m/M^2 | TSVR (total systemic vascular resistance) [1, 7]: 1445 dynes sec. cm.^-5 and 1038 dynes sec. cm.^-5 and 1067 dynes sec. cm.^-5 and 920 dynes sec. cm.^-5 and 1549 dynes sec. cm.^-5 and 1011 dynes sec. cm.^-5 and 1477 dynes sec. cm.^-5 and 908 dynes sec. cm.^-5 and 836 dynes sec. cm.^-5 and 1304 dynes sec. cm.^-5 | HR (heart rate) ([1]; 1 hour post prazosin, oral 2 to 5 mg (one patient 7 mg), individual patients 1-10): 66 beats per minute and 72 beats per minute and 90 beats per minute and 105 beats per minute and 62 beats per minute and 87 beats per minute and 86 beats per minute and 102 beats per minute | change in cardiac index (maximal increase) [1, 8]: +42% | change in left ventricular filling pressure [1, 8]: -41% | change in stroke work index (peak) [1, 8]: +35% | AP (mean systemic arterial pressure), mean [1, 9]: 78.6 mm. Hg. | CI (cardiac index), mean [1, 9]: 2.7 L/min./M^2 | HR (heart rate), mean [1, 9]: 81 beats per minute | LVFP (left ventricular filling pressure), mean [1, 9]: 17.9 mm. Hg. | SWI (stroke work index), mean [1, 9]: 28.7 gm.-m/M^2 | TSVR (total systemic vascular resistance), mean [1, 9]: 1303 dynes sec. cm.^-5 | AP (mean systemic arterial pressure) [1, 10]: 79 mm. Hg. and 67 mm. Hg. and 90 mm. Hg. and 72 mm. Hg. and 80 mm. Hg. and 77 mm. Hg. and 68 mm. Hg. and 69 mm. Hg. and 104 mm. Hg. | CI (cardiac index) [1, 10]: 3.1 L/min./M^2 and 2.4 L/min./M^2 and 2.0 L/min./M^2 and 2.9 L/min./M^2 and 2.3 L/min./M^2 and 2.8 L/min./M^2 and 3.3 L/min./M^2 and 2.5 L/min./M^2 | HR (heart rate) [1, 10]: 66 beats per minute and 70 beats per minute and 85 beats per minute and 100 beats per minute and 61 beats per minute and 72 beats per minute and 112 beats per minute and 80 beats per minute and 99 beats per minute | LVFP (left ventricular filling pressure) [1, 10]: 21 mm. Hg. and 23 mm. Hg. and 14 mm. Hg. and 11 mm. Hg. and 20 mm. Hg. and 22 mm. Hg. and 25 mm. Hg. and 18 mm. Hg. and 16 mm. Hg. | SWI (stroke work index) [1, 10]: 45 gm.-m/M^2 and 25 gm.-m/M^2 and 32 gm.-m/M^2 and 22 gm.-m/M^2 and 36 gm.-m/M^2 and 26 gm.-m/M^2 and 16 gm.-m/M^2 and 17 gm.-m/M^2 and 24 gm.-m/M^2 and 44 gm.-m/M^2 | TSVR (total systemic vascular resistance) [1, 10]: 1222 dynes sec. cm.^-5 and 1307 dynes sec. cm.^-5 and 1125 dynes sec. cm.^-5 and 1069 dynes sec. cm.^-5 and 1484 dynes sec. cm.^-5 and 1294 dynes sec. cm.^-5 and 1850 dynes sec. cm.^-5 and 1135 dynes sec. cm.^-5 and 840 dynes sec. cm.^-5 and 1708 dynes sec. cm.^-5 | persistence of reduction of pressure.time per minute ([1]; 6 hours): remained diminished for 6 hours | persistence of reduction of total systemic vascular resistance ([1]; 6 hours): significant (p<0.001) reduction in TSVR persisted for the entire 6 hour observation | AP (mean systemic arterial pressure), mean [1, 11]: 86.0 mm. Hg. | CI (cardiac index), mean [1, 11]: 2.4 L/min./M^2 | HR (heart rate), mean [1, 11]: 75 beats per minute | LVFP (left ventricular filling pressure), mean [1, 11]: 19.7 mm. Hg. | SWI (stroke work index), mean [1, 11]: 29.9 gm.-m/M^2 | TSVR (total systemic vascular resistance), mean [1, 11]: 1639 dynes sec. cm.^-5 | AP (mean systemic arterial pressure) [1, 12]: 75 mm. Hg. and 80 mm. Hg. and 100 mm. Hg. and 102 mm. Hg. and 85 mm. Hg. and 74 mm. Hg. | CI (cardiac index) [1, 12]: 3.1 L/min./M^2 and 2.4 L/min./M^2 and 2.6 L/min./M^2 and 2.2 L/min./M^2 and 2.1 L/min./M^2 | HR (heart rate) [1, 12]: 70 beats per minute and 72 beats per minute and 90 beats per minute and 56 beats per minute and 78 beats per minute and 86 beats per minute | LVFP (left ventricular filling pressure) [1, 12]: 13 mm. Hg. and 20 mm. Hg. and 23 mm. Hg. and 15 mm. Hg. and 18 mm. Hg. and 29 mm. Hg. | SWI (stroke work index) [1, 12]: 38 gm.-m/M^2 and 27 gm.-m/M^2 and 30 gm.-m/M^2 and 45 gm.-m/M^2 and 25 gm.-m/M^2 and 15 gm.-m/M^2 | TSVR (total systemic vascular resistance; head TSVB) [1, 12]: 1158 dynes sec. cm.^-5 and 1550 dynes sec. cm.^-5 and 1455 dynes sec. cm.^-5 and 2066 dynes sec. cm.^-5 and 1638 dynes sec. cm.^-5 and 1973 dynes sec. cm.^-5 | persistence of reduction of left ventricular filling pressure ([1]; entire study period): remained significantly (p<0.001) reduced throughout the entire study period | total systemic vascular resistance, patients responding ([1]; following prazosin): reduced in each patient | change in heart rate ([1]; following prazosin, control 84 ± 5.1 beats per minute, p>0.05): not statistically different | change in pressure.time per minute [1, 13]: -15% | change in total systemic vascular resistance [1, 13]: -44 | pressure.time per minute (index of myocardial oxygen demand) ([1]; one hour post prazosin): 2793 ± 188 mm. Hg. sec. per minute | response in systemic blood pressure or left ventricular filling pressure ([1]; one patient, 2 hours following first dose): no alteration in systemic blood pressure or left ventricular filling pressure | persistence of increase in cardiac index ([1]; six hours vs. control): remaining significantly (p<0.01) elevated at six hours | persistence of lowering of mean systemic arterial pressure ([1]; throughout the observation period): remained significantly (p<0.001 or p<0.01) lowered throughout the observation period | change in mean systemic arterial pressure ([1]; two hours post prazosin vs. control): -20% | mean systemic arterial pressure, maximal hypotensive effect ([1]; two hours post prazosin, control 95.3 ± 5.3): 76.2 ± 3.8 mm. Hg. | tolerability in long-term administration ([2]; hypertensive patients): relatively well tolerated | excessive hypotension ([2]; in vivo): reported to occasionally occur | serologic side effects resembling hydralazine-induced lupus erythematosus ([2]; in vivo): no reports of serologic side effects | febrile polyarthritis ([2]; patient receiving prazosin for hypertension): reported in a single patient | syncope or other untoward effects [3]: no syncope or other untoward effects occurred | forearm vascular resistance, patients responding ([4]; 30 minutes post prazosin): lowered by prazosin in all patients | ratio of percent reduction of forearm vascular resistance to percent decline in forearm venous tone ([4]; 30 minutes post prazosin): 0.49 | change in forearm venous tone ([4]; 30 minutes post prazosin vs. control): -69% | forearm blood flow ([4]; 30 minutes post prazosin): 1.71 ± 0.25 ml./100 gm./minute | venous tone in the forearm ([4]; 30 minutes post prazosin, control 58.9 ± 13.8): 18.5 ± 3.9 ml./mm. Hg. | forearm vascular resistance ([4]; 30 minutes post prazosin): 58.4 ± 6.1 mm. Hg./ml./100 gm./min. | ratio of percent reduction of forearm vascular resistance to percent decline in forearm venous tone ([4]; 1 hour post prazosin): 0.67 | forearm blood flow ([4]; 60 minutes post prazosin): 1.95 ± 0.33 ml./100 gm./minute | persistence of increase in forearm blood flow ([4]; 6 hours): remained increased for the entire 6 hours | change in forearm vascular resistance [4, 13]: -47% | forearm vascular resistance ([4]; one hour post prazosin): 47.9 ± 5.8 mm. Hg./ml./100 gm./min. | persistence of decline in forearm vascular resistance ([4]; six hours): persisted for the six hour study period | persistence of lowering of forearm venous tone ([4]; six hours): remained lowered at this level for the entire six hour observation period | cyclic GMP ([5]; myocardium): increased levels of cyclic GMP | cyclic AMP ([5]; vascular smooth muscle): accumulation of cyclic AMP | inhibition of phosphodiesterase ([5]; vascular smooth muscle): inhibition of the enzyme phosphodiesterase | effects on the contractile state of the heart [6]: neither direct nor sympathetically mediated indirect effects
